Structures are written as SMILES. “Also recorded” adds a separate entry of the source. Read-outs that look alike come from different tables or passages of the source.

Broadly, the LD50 is the dose at which mortality reaches 50%. A word on the ED50: it is the dose at which the effect has come halfway, by size or by number of responders.

For data set [1] the following is noted: prior art documents; cited from earlier work.
The conditions of data set [2]: prior art documents; cited from earlier work. The source holds these as a separate data set.
A short description of data set [3]: in vivo. The data set is classed as in vivo. The conditions noted are these: mouse, in vivo, po. How it is done:
(§1) The neurotoxic properties were assessed on male mice by the so-called "Rota-rod" test carried out thirty minutes after the oral administration of the substances to be studied. The animals (divided into groups each containing ten male mice per dose and per product) are installed on the rod and their fall is observed over the next two minutes.
(§2) The results obtained are expressed in the form of the 50% neurotoxic dose (TD50) per os, which is the dose causing 50% of the animals to fall.
(§3) Protection index: TD50 per os/ED50 per os
(§4) *dose determined per os on groups each containing ten male mice.

Data set [4] is described as follows: in vivo. Particulars: mouse, in vivo, po; for selectivity ratio: LD50 per os/ED50 per os. The method, then:
(§5) The toxicity of the products to be studied was investigated by the oral administration, using an esophageal tube, of each of the said products to male mice with a body weight of 18 to 22 g, divided into groups each containing 10 to 20 animals. The mortality was recorded over a 14-day period.
(§6) The results obtained, which are expressed in the form of LD50 in mg/kg, are collated in Table II below.

The test system of another data set is convulsive seizures. In words: Anticonvulsant properties in mice, overall statement (PTZ and MCE). The conditions noted are these: for most effective products according to the invention: in view of protection and therapeutic indices, Table IV. The data set is classed as in vivo, male mice. The method, then:
The anticonvulsant properties were investigated on male mice, thirty minutes after the oral administration of the substances to be studied, by the induction of convulsive seizures.
These seizures are caused either by the intraperitoneal injection of pentetrazole (125 mg/kg) or by electrical stimulation of the cornea (supra-maximal electroshock, abbreviated to MCE).
The results, expressed in the form of the 50% effective dose (ED50) per os (dose protecting 50% of the animals), are collated in Table III below.

For data set [5], the system named is convulsions induced by pentetrazole (PTZ). Briefly: Anticonvulsant properties: convulsions induced by pentetrazole (PTZ), oral, mice. The data set is classed as in vivo. The conditions noted are these: per os, male mice, 30 min after administration, pentetrazole 125 mg/kg i.p.; for ED50 in respect of convulsions induced by PTZ: 30 min.
The test system of data set [6] is convulsions induced by supramaximal electroshock (MCE). In words: Anticonvulsant properties: convulsions induced by supramaximal electroshock (MCE), oral, mice. The data set is classed as in vivo. Particulars: per os, male mice, 30 min after administration; for ED50 in respect of convulsions induced by MCE: 30 min. On the technique in general: Protection in the maximal electroshock model is a classic sign of anticonvulsant action.
Source text: MCE: supramaximal electroshock;
*: ED50 in mg/kg, determined per os on groups each containing ten

In data set [7] the test system is male mice. In words: in vivo. Particulars: for therapeutic indices compared with the reference products: mouse, in vivo. The method, then: as §5, §6
In data set [8] the test system is male mice. In words: in vivo. The data set is classed as in vivo. Particulars: mouse, in vivo. How it is done:
as §1, §2, §3, §4

For `Cc1ncsc1C(C)O` (stereo not drawn) [1-(4-methylthiazol-5-yl)ethanol], the “antihypoxic properties (prior art)” value in [1] is given as “devoid of beneficial antihypoxic effects”. Further, the “anticonvulsant properties (prior art)” value in data set [2] was “possesses anticonvulsant properties; also recorded: is an anticonvulsant”.
On to `CO/N=C(\C)c1scnc1C` [Ex. 3, 5-(1-methoxyiminoethyl)-4-methylthiazole], for which the selectivity ratio was 3 in the data set “in vivo [3]” (Protection index MCE); 3.2 in “in vivo [3]” (Protection index PTZ); 5.9 in “in vivo [4]” (Therapeutic index MCE, MCE); 6.3 in “in vivo [4]” (Therapeutic index PTZ, PTZ). In the data set “in vivo [3]” (TD50), this compound gave a TD50 at 0.5 h of 290 mg/kg. Moreover, the LD50 at 336 h in “in vivo [4]” (LD50, Table II, male mice, 14 days) was 570 mg/kg; in the data set “in vivo [4]” (LD50, Table IV, per os, male mice), 570 mg/kg. In the data set with convulsive seizures (pure E isomer versus mixture E/Z=91/9), the “activity as an anticonvulsant” value is given as “less active than the corresponding mixture E/Z=91/9”. Moreover, the ED50 in data set [5] (Mus musculus, po, 0.5 h, read-out: ED50 in respect of convulsions induced by PTZ) came to 91 mg/kg; in [6] (Mus musculus, po, 0.5 h, read-out: ED50 in respect of convulsions induced by MCE), 97 mg/kg.
With `Cc1ncsc1C(C)(C)O` [2-(4-methylthiazol-5-yl)propan-2-ol], the “antihypoxic properties (prior art)” value in data set [1] is “has anticonvulsant and antihypoxic properties”. Further, in data set [2], the “anticonvulsant properties (prior art)” value was “has anticonvulsant and antihypoxic properties”.
In the case of `CC(=NOCc1ccccc1)c1scnc1C` [Ex. 11, 5-(1-benzyloxyiminoethyl)-4-methylthiazole], the selectivity ratio in “in vivo [3]” (TD50 per os/ED50 per os, MCE, read-out: Protection index MCE) was 12.8; in the data set “in vivo [3]” (TD50 per os/ED50 per os, PTZ, read-out: Protection index PTZ), 21.7; in “in vivo [4]” (Therapeutic index MCE, MCE) it was greater than 12.8. Also, the TD50 at 0.5 h in the data set “in vivo [3]” (Rota-rod, per os, male mice, 30 min after administration, read-out: TD50) was 1000 mg/kg. The “Therapeutic index PTZ” value in the data set on male mice [7] (LD50 per os/ED50 per os) was greater than 21.7. The compound also registered an LD50 in the data set on male mice [7] (Table IV, per os, male mice, 20160 min) greater than 1000 mg/kg. Moreover, the “most effective products according to the invention” value in the data set on convulsive seizures was “most effective”. In addition, in data set [5], the “ED50 in respect of convulsions induced by PTZ” value (from here on “ED50 … by PTZ”) amounted to 46 mg/kg. For the same compound, the “ED50 in respect of convulsions induced by MCE” value (from here on “ED50 … by MCE”) in data set [6] was 78 mg/kg.
For `Cc1ncsc1CO` [5-hydroxymethyl-4-methylthiazole], the “anticonvulsant properties (prior art)” value in data set [2] was “devoid of anticonvulsant effects”.
`CCON=C(C)c1scnc1C` [Ex. 5]: the “protection indices compared with the reference products” value in the data set with male mice [8] was “better than those of the reference products”. The selectivity ratio in “in vivo [3]” (Protection index MCE) worked out at 6.3; in the data set “in vivo [3]” (Protection index PTZ), 7.5; in “in vivo [4]” (Therapeutic index MCE, MCE), 8.3; in “in vivo [4]” (Therapeutic index PTZ, PTZ) it was 10. Moreover, the TD50 at 0.5 h in the data set “in vivo [3]” (TD50) worked out at 750 mg/kg. In addition, the “therapeutic indices compared with the reference products” value with male mice [7] was “better than those of the reference products”. Besides, the LD50 at 336 h in “in vivo [4]” (LD50) is 1000 mg/kg. In addition, the “ED50 … by PTZ” value in data set [5] is reported as 100 mg/kg. Moreover, the “ED50 … by MCE” value in data set [6] is given as 120 mg/kg.
`CC(=NOCc1ccccc1)c1scnc1C` [Ex. 12]: the “protection indices compared with the reference products” value in the data set with male mice [8] is “better than those of the reference products”. In addition, the selectivity ratio in “in vivo [3]” (Protection index MCE) amounted to 8.6; in “in vivo [3]” (Protection index PTZ) it was 13.5. The TD50 at 0.5 h in the data set “in vivo [3]” (TD50) worked out at 1350 mg/kg. Also, the “Therapeutic index MCE” value in the data set on male mice [7] (LD50 per os/ED50 per os, MCE) was greater than 6.4. The “Therapeutic index PTZ” value in the data set with male mice [7] (LD50 per os/ED50 per os) is greater than 10.0. Besides, the “therapeutic indices compared with the reference products” value in the data set on male mice [7] was “better than those of the reference products”. Further, the 50% lethal dose (LD50) at 336 h in “in vivo [4]” (LD50) was greater than 1000 mg/kg. Besides, the “most effective products according to the invention” value in the data set with convulsive seizures is reported as “most effective”. The “ED50 … by PTZ” value in data set [5] worked out at 100 mg/kg. Besides, the “ED50 … by MCE” value in [6] is on record as 157 mg/kg.
